Assay results reported in patent US9958439B2, “Carbohydrate detection” (RICHTER LIFE SCIENCE DEVELOPMENT AB, priority 2012, dated 2018).
Where two headings read alike, the source gives them in different places.

Columns and labels:
[1] = Summary of the method: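 LCO probes at 3 μM mixed with serial two-fold carbohydrate dilutions in water (10–0.039 or 5–0.019 mg/ml), run in triplicate. Excitation scanned 300–500 nm with emission at 545 nm; detection based on reproducible λmax or RFU shift against the no-carbohydrate control, with linear regression of RFU on concentration.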
[2] = for RFU change (Correlation analysis): probe-specific excitation λ, emission 545 nm; for carbohydrate can be detected and/or differentiated by the LCO: conclusion from change in signal magnitude and/or shift in λmax
Summary of the method: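 Each LCO probe at 3 μM was added to two-fold serial dilutions of carbohydrate in dH2O (10–0.039 mg/ml for β-1,3-glucan, cellulose, chitin; 5–0.019 mg/ml for the others), run in triplicate. Excitation spectra were scanned 300–500 nm with emission at 545 nm. Detection was a reproducible λmax and/or RFU shift versus negative control, with linear regression of RFU against concentration.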

[3] = for RFU change (Correlation analysis): probe-specific excitation λ, emission 545 nm; for Gradient Parameters (gradient of regression line) / Linear relationship / Quality of Gradient: linear regression
Summary of the method: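 LCO probes at 3 μM mixed with serial twofold carbohydrate dilutions in dH2O (10–0.039 or 5–0.019 mg/ml, depending on carbohydrate). Excitation scanned 300–500 nm, emission read at 545 nm; detection defined as reproducible shift in λmax and/or RFU relative to negative control, with linear regression of RFU against concentration.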

[4] = for RFU change (Correlation analysis): probe-specific excitation λ, emission 545 nm; for carbohydrate can be detected and/or differentiated by the LCO: conclusion from change in signal magnitude and/or shift in λmax; remark: listed apart in the source
Summary of the method: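 LCO probes at 3 μM mixed with serial two-fold dilutions of carbohydrate in dH2O (10–0.039 or 5–0.019 mg/ml, depending on carbohydrate), in triplicate. Excitation scanned 300–500 nm or fixed per probe (λmax or lowest background), emission at 545 nm. Detection taken as reproducible λmax/RFU shift vs no-carbohydrate control; RFU regressed linearly on concentration.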

[5] = remark: listed apart in the source
Summary of the method: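 LCO probes (3 μM) were added to serial two-fold dilutions of carbohydrate suspensions in dH2O, with excitation scanned 300–500 nm and emission at 545 nm. Detection was a reproducible λmax and/or RFU change versus no-carbohydrate control. RFU was regressed linearly against concentration at the λmax or the lowest-background excitation.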

[6] = remark: listed apart in the source
Summary of the method: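 3 μM of each LCO probe was added to serial two-fold carbohydrate dilutions in water (10–0.039 or 5–0.019 mg/ml). Excitation spectra were scanned 300–500 nm with emission at 545 nm, in triplicate. Detection was defined as a reproducible shift in λmax and/or RFU versus negative control, with linear regression of RFU against concentration.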

[7] = glucose concentration vs RFU, linear regression
[8] = Chitin 10-[…], 3 μM probe, spectral analysis, Excitation 300-500, Emission 545
[9] = cellulose concentration vs RFU, linear regression
[10] = chitin concentration vs RFU, linear regression
[11] = β-1,3-glucan concentration vs RFU, linear regression
[12] = Glycogen 5-0.019 mg/ml, 3 μM probe, spectral analysis, Excitation 300-500, Emission 545
[13] = Cellulobiose 5-0.019 mg/ml, 3 μM probe, spectral analysis, Excitation 300-500, Emission 545
[14] = amylose concentration vs RFU, linear regression
[15] = cellulobiose concentration vs RFU, linear regression
[16] = sodium alginate concentration vs RFU, linear regression
[17] = Chondroitin Sulfate A 5-0.019 mg/ml, 3 μM probe, spectral analysis, Excitation 300-500, Emission 545
[18] = Chondroitin Sulfate A concentration vs RFU, linear regression

O=C([O-])C[C@H](NC(=O)Cc1cc(-c2cccs2)sc1-c1ccc(-c2sc(-c3cccs3)cc2CC(=O)N[C@@H](CC(=O)[O-])C(=O)[O-])s1)C(=O)[O-].[Na+].[Na+].[Na+].[Na+] [pHTA-Asp, penta Hydrogen Thiophene Acetic acid Aspartic acid]
RFU change (Correlation analysis) ([1]; Glucose 5-0.019 mg/ml, 3 μM probe, probe-specific excitation λ, emission 545 nm): Increases
RFU change (Signal deviation with increasing [Carbohydrate]) ([1]; Glucose 5-0.019 mg/ml, 3 μM probe, spectral analysis, Excitation 300-500, Emission 545): Increases
carbohydrate can be detected and/or differentiated by the LCO ([1]; Glucose, conclusion from change in signal magnitude and/or shift in λmax): can be detected and/or differentiated
Gradient Parameters (gradient of regression line) [1, 7]: 625.1 ± 130.2
Linear relationship [1, 7]: Significant
Quality of Gradient [1, 7]: Positive
Sensitivity ([1]; to glucose): Yes
RFU change (Correlation analysis) ([2]; Cellulose 10-[…], 3 μM probe): Unclear
RFU change (Signal deviation with increasing [Carbohydrate]) ([2]; Cellulose 10-[…], 3 μM probe, spectral analysis, Excitation 300-500, Emission 545): Unclear
RFU change (Correlation analysis) ([2]; Chitin 10-[…], 3 μM probe): Increases
RFU change (Signal deviation with increasing [Carbohydrate]) [2, 8]: Increases
λmax change [2, 8]: Redshift
carbohydrate can be detected and/or differentiated by the LCO ([2]; Chitin): can be detected and/or differentiated
Gradient Parameters (gradient of regression line) [2, 9]: 12.3 ± 64.4
Quality of Gradient [2, 9]: Horizontal
Gradient Parameters (gradient of regression line) [2, 10]: 3138 ± 491.2
Linear relationship [2, 10]: Significant
Quality of Gradient [2, 10]: Positive
Sensitivity ([2]; to cellulose): No
Sensitivity ([2]; to chitin): Yes
Sensitivity ([2]; to β-1,3-glucan): Yes
carbohydrate can be detected and/or differentiated by the LCO ([2]; β-1,3-Glucan): can be detected and/or differentiated
RFU change (Correlation analysis) ([2]; β-1,3-glucan 10-[…], 3 μM probe): Decrease
RFU change (Signal deviation with increasing [Carbohydrate]) ([2]; β-1,3-glucan 10-[…], 3 μM probe, spectral analysis, Excitation 300-500, Emission 545): Decrease
Gradient Parameters (gradient of regression line) [2, 11]: −792.9 ± 97.3
Quality of Gradient [2, 11]: Negative
RFU change (Correlation analysis) ([3]; Glycogen 5-0.019 mg/ml, 3 μM probe): Decreases
RFU change (Signal deviation with increasing [Carbohydrate]) [3, 12]: Decreases
λmax change [3, 12]: Redshift
carbohydrate can be detected and/or differentiated by the LCO ([3]; Glycogen, conclusion from change in signal magnitude and/or shift in λmax): can be detected and/or differentiated
RFU change (Correlation analysis) ([3]; Heparin 5-0.019 mg/ml, 3 μM probe): Unclear
RFU change (Signal deviation with increasing [Carbohydrate]) ([3]; Heparin 5-0.019 mg/ml, 3 μM probe, spectral analysis, Excitation 300-500, Emission 545): Unclear
Gradient Parameters (gradient of regression line) ([3]; glycogen concentration vs RFU): −665.8 ± 88.9
Linear relationship ([3]; glycogen concentration vs RFU): Significant
Quality of Gradient ([3]; glycogen concentration vs RFU): Negative
Gradient Parameters (gradient of regression line) ([3]; heparin concentration vs RFU): −3.2 ± 49.3
Linear relationship ([3]; heparin concentration vs RFU): Not Significant
Quality of Gradient ([3]; heparin concentration vs RFU): Horizontal
Sensitivity ([3]; to glycogen): Yes
Sensitivity ([3]; to heparin): No
RFU change (Correlation analysis) ([4]; Amylose 5-0.019 mg/ml, 3 μM probe): Increases
RFU change (Signal deviation with increasing [Carbohydrate]) ([4]; Amylose 5-0.019 mg/ml, 3 μM probe, spectral analysis, Excitation 300-500, Emission 545): Increases
carbohydrate can be detected and/or differentiated by the LCO ([4]; Amylose): can be detected and/or differentiated
RFU change (Correlation analysis) ([4]; Cellulobiose 5-0.019 mg/ml, 3 μM probe): Increases
RFU change (Signal deviation with increasing [Carbohydrate]) [4, 13]: Increases
λmax change [4, 13]: No change
carbohydrate can be detected and/or differentiated by the LCO ([4]; Cellulobiose): can be detected and/or differentiated
Gradient Parameters (gradient of regression line) [4, 14]: −7.6 ± 208.9
Quality of Gradient [4, 14]: Horizontal
Linear relationship [4, 15]: Significant
Quality of Gradient [4, 15]: Positive
Sensitivity ([4]; to amylose): Yes
Sensitivity ([4]; to cellulobiose): Yes
RFU change (Correlation analysis) ([5]; Sodium alginate 5-0.019 mg/ml, 3 μM probe, probe-specific excitation λ, emission 545 nm): Unclear
RFU change (Signal deviation with increasing [Carbohydrate]) ([5]; Sodium alginate 5-0.019 mg/ml, 3 μM probe, spectral analysis, Excitation 300-500, Emission 545): Unclear
Gradient Parameters (gradient of regression line) [5, 16]: 41.4 ± 59.6
Quality of Gradient [5, 16]: Horizontal
Sensitivity ([5]; to sodium alginate): No
RFU change (Correlation analysis) ([6]; Chondroitin Sulfate A 5-0.019 mg/ml, 3 μM probe, probe-specific excitation λ, emission 545 nm): Unclear
RFU change (Signal deviation with increasing [Carbohydrate]) [6, 17]: Unclear
λmax change [6, 17]: No change
Gradient Parameters (gradient of regression line) [6, 18]: −67.88 ± 90.0
Quality of Gradient [6, 18]: Horizontal
Sensitivity ([6]; to Chondroitin Sulfate A): No
